From PubChem BioAssay AID1963970 (Molecular Pharmacology Branch, DTP, NCI, 2024)

System: 931267-113-T-J1-PDC multicell spheroid viability
Test: Anticancer human tumor 931267-113-T-J1-PDC patient-derived colon adenocarcinoma cell line growth inhibition [PI3K]
Conditions: for IC50: curve of first compound; for viability, T/C: stronger effect = lower value
Procedure, shortened: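 Tumor cells were combined with HUVEC and MSCs into spheroids, then dosed with PI3K-inhibitor combinations over half-log ranges capped near clinical Cmax or 10 microM.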

[1] = second compound 0.0316 µM, first compound 0.0316 µM
[2] = second compound 0.0316 µM, first compound 0.1 µM
[3] = second compound 0.0316 µM, first compound 0.316 µM
[4] = second compound 0.0316 µM, first compound 1 µM
[5] = second compound 0.0316 µM, first compound 3.16 µM
[6] = second compound 0.0316 µM, first compound 10 µM
[7] = second compound 0.1 µM, first compound 0.0316 µM
[8] = second compound 0.1 µM, first compound 0.1 µM
[9] = second compound 0.1 µM, first compound 0.316 µM
[10] = second compound 0.1 µM, first compound 1 µM
[11] = second compound 0.1 µM, first compound 3.16 µM
[12] = second compound 0.1 µM, first compound 10 µM
[13] = second compound 0.316 µM, first compound 0.0316 µM
[14] = second compound 0.316 µM, first compound 0.1 µM
[15] = second compound 0.316 µM, first compound 0.316 µM
[16] = second compound 0.316 µM, first compound 1 µM
[17] = second compound 0.316 µM, first compound 3.16 µM
[18] = second compound 0.316 µM, first compound 10 µM
[19] = second compound 1 µM, first compound 0.0316 µM
[20] = second compound 1 µM, first compound 0.1 µM
[21] = second compound 1 µM, first compound 0.316 µM
[22] = second compound 1 µM, first compound 1 µM
[23] = second compound 1 µM, first compound 3.16 µM
[24] = second compound 1 µM, first compound 10 µM
[25] = second compound 3.16 µM, first compound 0.0316 µM
[26] = second compound 3.16 µM, first compound 0.1 µM
[27] = second compound 3.16 µM, first compound 0.316 µM
[28] = second compound 3.16 µM, first compound 1 µM
[29] = second compound 3.16 µM, first compound 3.16 µM
[30] = second compound 3.16 µM, first compound 10 µM
[31] = second compound 10 µM, first compound 0.0316 µM
[32] = second compound 10 µM, first compound 0.1 µM
[33] = second compound 10 µM, first compound 0.316 µM
[34] = second compound 10 µM, first compound 1 µM
[35] = second compound 10 µM, first compound 3.16 µM
[36] = second compound 10 µM, first compound 10 µM
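Note: viability read 7 days after compound addition.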

Q: For `C#Cc1c(F)ccc2cc(O)cc(-c3ncc4c(N5CC6CCC(C5)N6)nc(OCC56CCCN5CC(F)C6)nc4c3F)c12` (stereo unspecified) + CC(Nc1ncnc2nc[nH]c12)c1cc2cccc(Cl)c2c(=O)n1-c1ccccc1, which IC50 (second compound 0.0316 µM) is on record?
A: The IC50 was 0.631 µM.

Q: What about the IC50 (second compound 0.1 µM) of the same compound?
A: Its IC50 is 0.573 µM.

Q: What about the IC50 (second compound 0.316 µM) of the same compound?
A: Its IC50 is 0.664 µM.

Q: What about the IC50 (second compound 1 µM) of the same compound?
A: The IC50 was 0.677 µM.

Q: And the IC50 (second compound 3.16 µM)?
A: Its IC50 is 0.378 µM.

Q: And the IC50 (second compound 10 µM)?
A: The IC50 was 0.222 µM.

Q: What about the viability, T/C [1] of the same compound?
A: Its viability, T/C is 96.4%.

Q: What about the viability, T/C [2] of the same compound?
A: The viability, T/C was 74%.

Q: And the viability, T/C [3]?
A: Its viability, T/C is 57.6%.

Q: What about the viability, T/C [4] of the same compound?
A: The viability, T/C was 45.7%.

Q: And the viability, T/C [5]?
A: Its viability, T/C is 32.6%.

Q: And the viability, T/C [6]?
A: The viability, T/C was 22.5%.

Q: What about the viability, T/C [7] of the same compound?
A: Its viability, T/C is 105%.

Q: And the viability, T/C [8]?
A: The viability, T/C was 78.1%.

Q: What about the viability, T/C [9] of the same compound?
A: The viability, T/C was 56.6%.

Q: What about the viability, T/C [10] of the same compound?
A: The viability, T/C was 45.4%.

Q: And the viability, T/C [11]?
A: Its viability, T/C is 29.5%.

Q: What about the viability, T/C [12] of the same compound?
A: The viability, T/C was 24.5%.

Q: What about the viability, T/C [13] of the same compound?
A: Its viability, T/C is 90.9%.

Q: What about the viability, T/C [14] of the same compound?
A: The viability, T/C was 72.9%.

Q: What about the viability, T/C [15] of the same compound?
A: Its viability, T/C is 61.4%.

Q: What about the viability, T/C [16] of the same compound?
A: The viability, T/C was 43.4%.

Q: And the viability, T/C [17]?
A: The viability, T/C was 33.6%.

Q: What about the viability, T/C [18] of the same compound?
A: The viability, T/C was 23.2%.

Q: What about the viability, T/C [19] of the same compound?
A: Its viability, T/C is 89.1%.

Q: And the viability, T/C [20]?
A: Its viability, T/C is 78.6%.

Q: And the viability, T/C [21]?
A: Its viability, T/C is 57.9%.

Q: And the viability, T/C [22]?
A: Its viability, T/C is 42.1%.

Q: What about the viability, T/C [23] of the same compound?
A: The viability, T/C was 37.3%.

Q: And the viability, T/C [24]?
A: The viability, T/C was 21.2%.

Q: What about the viability, T/C [25] of the same compound?
A: The viability, T/C was 87.3%.

Q: And the viability, T/C [26]?
A: Its viability, T/C is 70.3%.

Q: What about the viability, T/C [27] of the same compound?
A: The viability, T/C was 52.1%.

Q: And the viability, T/C [28]?
A: The viability, T/C was 36.1%.

Q: And the viability, T/C [29]?
A: The viability, T/C was 28.4%.

Q: And the viability, T/C [30]?
A: Its viability, T/C is 17.6%.

Q: What about the viability, T/C [31] of the same compound?
A: Its viability, T/C is 91.1%.

Q: And the viability, T/C [32]?
A: Its viability, T/C is 63.1%.

Q: What about the viability, T/C [33] of the same compound?
A: The viability, T/C was 45%.

Q: And the viability, T/C [34]?
A: The viability, T/C was 27.1%.

Q: What about the viability, T/C [35] of the same compound?
A: The viability, T/C was 22.7%.

Q: What about the viability, T/C [36] of the same compound?
A: The viability, T/C was 12%.

Q: For `C=CC(=O)N1CCN(c2nc(=O)n(-c3c(C)ccnc3C(C)C)c3nc(-c4c(O)cccc4F)c(F)cc23)C(C)C1` (stereo unspecified) + CC(Nc1ncnc2nc[nH]c12)c1cc2cccc(Cl)c2c(=O)n1-c1ccccc1, which IC50 (second compound 0.0316 µM) is on record?
A: The IC50 was > 10 µM.

Q: What about the IC50 (second compound 0.1 µM) of the same compound?
A: Its IC50 is > 10 µM.

Q: What about the IC50 (second compound 0.316 µM) of the same compound?
A: Its IC50 is > 10 µM.

Q: And the IC50 (second compound 1 µM)?
A: Its IC50 is > 10 µM.

Q: And the IC50 (second compound 3.16 µM)?
A: Its IC50 is > 10 µM.

Q: And the IC50 (second compound 10 µM)?
A: The IC50 was > 10 µM.

Q: And the viability, T/C [1]?
A: The viability, T/C was 97.5%.

Q: What about the viability, T/C [2] of the same compound?
A: The viability, T/C was 103%.

Q: And the viability, T/C [3]?
A: Its viability, T/C is 96.6%.

Q: What about the viability, T/C [4] of the same compound?
A: Its viability, T/C is 111%.

Q: And the viability, T/C [5]?
A: Its viability, T/C is 107%.

Q: What about the viability, T/C [6] of the same compound?
A: The viability, T/C was 107%.

Q: And the viability, T/C [7]?
A: The viability, T/C was 110%.

Q: What about the viability, T/C [8] of the same compound?
A: Its viability, T/C is 113%.

Q: And the viability, T/C [9]?
A: Its viability, T/C is 107%.

Q: What about the viability, T/C [10] of the same compound?
A: The viability, T/C was 111%.

Q: And the viability, T/C [11]?
A: The viability, T/C was 117%.

Q: What about the viability, T/C [12] of the same compound?
A: Its viability, T/C is 94.2%.

Q: What about the viability, T/C [13] of the same compound?
A: Its viability, T/C is 112%.

Q: And the viability, T/C [14]?
A: Its viability, T/C is 109%.

Q: What about the viability, T/C [15] of the same compound?
A: The viability, T/C was 116%.

Q: And the viability, T/C [16]?
A: Its viability, T/C is 107%.

Q: What about the viability, T/C [17] of the same compound?
A: The viability, T/C was 114%.

Q: And the viability, T/C [18]?
A: The viability, T/C was 96.5%.

Q: What about the viability, T/C [19] of the same compound?
A: The viability, T/C was 108%.

Q: What about the viability, T/C [20] of the same compound?
A: The viability, T/C was 109%.

Q: And the viability, T/C [21]?
A: The viability, T/C was 99.5%.

Q: What about the viability, T/C [22] of the same compound?
A: The viability, T/C was 105%.

Q: What about the viability, T/C [23] of the same compound?
A: The viability, T/C was 111%.

Q: What about the viability, T/C [24] of the same compound?
A: Its viability, T/C is 88.3%.

Q: And the viability, T/C [25]?
A: Its viability, T/C is 104%.

Q: And the viability, T/C [26]?
A: Its viability, T/C is 101%.

Q: And the viability, T/C [27]?
A: Its viability, T/C is 93.5%.

Q: What about the viability, T/C [28] of the same compound?
A: Its viability, T/C is 99.9%.

Q: What about the viability, T/C [29] of the same compound?
A: Its viability, T/C is 107%.

Q: And the viability, T/C [30]?
A: The viability, T/C was 87%.

Q: And the viability, T/C [31]?
A: The viability, T/C was 94.9%.

Q: What about the viability, T/C [32] of the same compound?
A: Its viability, T/C is 96.8%.

Q: What about the viability, T/C [33] of the same compound?
A: The viability, T/C was 107%.

Q: And the viability, T/C [34]?
A: The viability, T/C was 98.1%.

Q: And the viability, T/C [35]?
A: Its viability, T/C is 106%.

Q: What about the viability, T/C [36] of the same compound?
A: The viability, T/C was 102%.

Q: Which results are given for `CC(Cn1ccc(-c2ccc(C#N)c(Cl)c2)n1)NC(=O)c1cc(C(C)O)[nH]n1` (stereo unspecified) + CC(Nc1ncnc2nc[nH]c12)c1cc2cccc(Cl)c2c(=O)n1-c1ccccc1?
A: IC50 (second compound 0.0316 µM): > 10 µM; IC50 (second compound 0.1 µM): > 10 µM; IC50 (second compound 0.316 µM): > 10 µM; IC50 (second compound 1 µM): > 10 µM; IC50 (second compound 3.16 µM): > 10 µM; IC50 (second compound 10 µM): > 10 µM; viability, T/C [1]: 104%; viability, T/C [2]: 110%; viability, T/C [3]: 106%; viability, T/C [4]: 105%; viability, T/C [5]: 116%; viability, T/C [6]: 96.7%; viability, T/C [7]: 114%; viability, T/C [8]: 101%; viability, T/C [9]: 102%; viability, T/C [10]: 108%; viability, T/C [11]: 102%; viability, T/C [12]: 103%; viability, T/C [13]: 111%; viability, T/C [14]: 107%; viability, T/C [15]: 104%; viability, T/C [16]: 107%; viability, T/C [17]: 105%; viability, T/C [18]: 101%; viability, T/C [19]: 113%; viability, T/C [20]: 110%; viability, T/C [21]: 102%; viability, T/C [22]: 118%; viability, T/C [23]: 107%; viability, T/C [24]: 102%; viability, T/C [25]: 103%; viability, T/C [26]: 98.5%; viability, T/C [27]: 87%; viability, T/C [28]: 99.6%; viability, T/C [29]: 101%; viability, T/C [30]: 94.7%; viability, T/C [31]: 88%; viability, T/C [32]: 94.8%; viability, T/C [33]: 99.4%; viability, T/C [34]: 95.8%; viability, T/C [35]: 92.5%; viability, T/C [36]: 87.8%
